Assay results as given in patent publication US4514330A, “Carbon-7-substituted atinomycin D analogue” (Trustees of Boston University, priority 1983, dated 1985).
Values after ≈ are worked out from the molar mass of the structure shown. Read-outs that look alike come from different tables or passages of the source. Starred links: 1 amine or outer side, 2 acyl side, 3 side chain; linkers in the order of their positions; H or OH if unused. Positions of bridges follow the written chain, without caps; N, C: chain ends. Non-standard residues stand in square brackets, D forms with d. Residues, ends and D or L forms follow the SMILES beside them. Chains are numbered I, II in the order given. Actinocin(9to1) = Cc1c2oc3c(C)ccc(C(=O)[*:1])c3nc-2c(C(=O)[*:2])c(N)c1=O; NMeV = CN[C@H](C(=O)O)C(C)C; Sar = CNCC(=O)O

Experiments:
DNA [1] = experiment: Thermal denaturation of DNA (ΔTm), stabilization of DNA helical structure on drug binding; parameters: species or system calf thymus
Procedure: Thermal denaturation studies were carried out according to the procedure described in J. Med. Chem., Vol. 24, p. 1052 (1981). The ΔTm values in Table II give a measure of stabilization of DNA helical structure as a consequence of drug binding.
^a ΔTm = m of DNAdrug complex minus m of DNA.
Concentraiton of drug, 1.4 × 10^-4 M; of DNA (P), 1.4 ×
10^-3 M in 0.01 M phosphate buffer (pH 7.0), 5 × 10^-3 M in
EDTA and 5% dimethyl sulfoxide.
^d Highest dose tested. These values are derived at high temperatur
(67°-75° C.) and may not always correlate with the results
of other DNA-binding studies (e.g., absorptiometric or circular dichroic).
Melting points were obtained with a Thomas-Hoover melting point apparatus at a heating rate of 2° C./min. Column chromatography was accomplished with silica gel powder (Baker No. 3405, 60-20 mesh) or acid alumina (Woelm grade 1). Limited gel-filtration work was done on Sephadex LH-20, particle size 25-100 μm (Pharmacia Fine Chemicals). Thin-layer chromatography was performed on silica gel plates (E. M. Laboratories, Inc.). Solvent systems used were (A) butanol-formic acid-H2 O (75:13:12), (B) EtOAc-acetone (3:1), and (C) Cifferri, the organic phase of the mixture EtOAc-MeOH-H2 O (20:1:20). High-performance liquid chromatography was carried out on a Varian Model 5020 gradient liquid chromatograph equipped with CD-111L chromatography data system and fitted with Varian reversed-phase C18 column with isocratic solvent systems, CH3 -CN-5 mM NH4 OAc buffer, pH 6.4 (68:32 or 62:38), pressure 80-140 atm, flow rate 1.5 mL/min, with UV-visible variable and fixed wavelength dual detectors at 254 and 466 nm. Spectra were determined on the following instruments: IR spectra were obtained with a Perkin-Elmer Model 237 Infra Cord with KBr micropellets or chloroform solutions; UV-visible spectra were obtained on a Gilford 250 spectrophotometer, which, with the addition of a base-line reference compensator (Analog Multiplexer 6064) and thermoprogrammer, auto four cell programmer and thermoelectric cell holder 2577, was used to obtain thermal denaturation curves; NMR spectra were obtained on a JOEL FQ-90-90MHZ spectrometer equipped with Fourier transform; and CD spectra were obtained on a Cary 61 spectrophotometer. All elemental analyses were within ±0.4% of the theoretical values. Actinomycin D, batch no. NCS 3053, lot L554651-0-10, was provided by Natural Products Branch, National Cancer Institute, Silver Spring, Md. Calf thymus DNA type 1 was purchased from Sigma Chemical Co.

[2] = system: Wilm's tumor, gestational choriocarcinoma, and Kaposi's sarcoma; conditions: cited from earlier work
DNA [3] = conditions: known analogues; cited from earlier work
P-388 leukemia = experiment: In vivo antitumor activity against P-388 lymphocytic leukemia in CDF1 mice; conditions: for % ILS (percent increase in life span) / MST (median survival time) / cure (over 55 day survivors): days 1, 5, 9; for minimal effective dose: Mus musculus, P388, ip, read-out: MED (minimum effective dose, 40% increase in life span over control)
Procedure: Studies on in vivo activity of AMD and AMD analogues were carried out with P-388 lymphocytic leukemia in CDF1 hybrid mice. The drugs were administered either daily for 4 successive days (qd 1-4) or on days 1, 5 and 9 (q4d 1, 5, 9) beginning 1 day after tumor implantation.
^a Male CDF1 (18-23 g) mice were inoculated intraperitoneally
(ip) with 10^6 P388 cells on day 0. Drugs were administered, also ip,
in 10% dimethyl sulfoxidesaline on days 1, 5 and 9. Test solutions were
kept at 0-4° C., protected from light, and the stability and
homogeneity were checked periodically by TLC and HPLC.
^b MST = median survival time.
^c % ILS = percent increase in life span.
^d Over 55 day survivors. Average of three experiments. The
^a Drugs administed ip once daily either for 4 successive days (qd
1-4) or on days 1, 5 and 9 (q4d 1, 5 9), starting 1 day after tumor
^b MED (minimum effective dose) is the dose (milligrams/kilogram)
providing an increase in life span of 40% over control in P388

patients = conditions: attributed to lack of metabolism / excretion; listed as AMD; cited from earlier work
[4] = cited from earlier work
[5] = system: spleen, liver, kidney, large and small intestine, heart, lung, pancreas and adrenals; experiment: Gross pathology of organ sections at LD10 (MTD) dose levels, day 14; assay type: in vivo, CDF1 mice
Procedure: In an additional experiment, two animals at LD10 (or MTD) dose levels were sacrificed on day 14, and the organ sections from these animals were evaluated for gross pathology in the following way. Organs, e.g., spleen, liver, kidney, large and small intestine, heart, lung, pancreas and adrenals, were removed and fixed in 10% […] buffer formalin. They were kept immersed for 2 weeks; tissues were dehydrated through graded alcohols (70, 90, 95 and 100%), cleared in cedarwood oil and embedded in paraffin. Sections were cut in 7 μm and mounted with gelatin on microscope slides. After drying, sections were stained with Mayer's hematoxylin and eosin and examined with light microscopy.

[6] = system: DNA-dependent RNA synthesis; conditions: submicromolar concentrations; cited from earlier work
proliferating cells = conditions: cited from earlier work
normal CDF1 male mice = experiment: Maximum tolerated dose (LD10) in normal, tumor-free CDF1 male mice; assay type: in vivo; conditions: deaths during 21 days
Procedure: ^c MTD (maximum tolerated dose) is the lethal dose
(milligrams/kilogram) for 10% normal CDF1 male mice (18-23 g);
were calculated from a plot of log dose vs. percent mortality. Average of
two to three experiments.
Biological Experiments. Determination of LD10 Values. Tumor-free CDF1 male mice weighing 18-23 g were given a broad range of doses of drugs in 10% dimethyl sulfoxide-saline on either days 1, 5 and 9 or on 4 successive days. Drugs were administered intraperitoneally (ip).
The maximum tolerated doses of AMD and analogues that caused deaths in only 10% of the tested animals in 21 days were recorded as MTD. The results are an average of two experiments in each. The MTD values obtained following schedules q4d 1, 5, 9 (three injections) and qd 1-4 (four injections) are recorded in Table IV. These doses are the same as LD10 (lethal dose of 10% of tumor-free animals in 21 days).

[7] = system: human lymphoblastic leukemic cells (CCRF-CEM); experiment: In vitro growth-inhibitory activity against human lymphoblastic leukemic cells (CCRF-CEM) in log phase; assay type: cell-based; conditions: Homo sapiens, final growth medium contained 1% Me2SO, log phase, read-out: ID50 (in vitro growth inhibition, CCRF-CEM)
Procedure: ^b Using human lymohoblastic leukemia cells in logplastic growth.
Compounds were dissolved in Me2 So medium, final growth medium

[8] = three injections ip, q4d 1, 5, 9

For Cc1c2oc3c(C)ccc(C(=O)N[C@@H]4C(=O)N[C@H](C(C)C)C(=O)N5CCC[C@H]5C(=O)N(C)CC(=O)N(C)[C@@H](C(C)C)C(=O)O[C@@H]4C)c3nc-2c(C(=O)N[C@@H]2C(=O)N[C@H](C(C)C)C(=O)N3CCC[C@H]3C(=O)N(C)CC(=O)N(C)[C@@H](C(C)C)C(=O)O[C@@H]2C)c(N)c1=O [Compound 1b, Actinomycin D, reference compound] (I: T[dV]P[Sar][NMeV] / II: T[dV]P[Sar][NMeV]; ester I:1-I:C, II:1-II:C; linker I:N-II:N via Actinocin(9to1)), the “Tm (ΔTm = Tm of DNA-drug complex minus Tm of DNA)” value (DNA [1]; drug 1.4 × 10^-4 M, DNA (P) 1.4 × 10^-3 M, 0.01 M phosphate buffer pH 7.0, EDTA, 5% dimethyl sulfoxide) is listed as 7.1 ± 0.15 °C, the “DNA melting profile / ΔTm character of the DNA complex” value (DNA [1]; thermal denaturation, words) is listed as “sharp and smooth” and the “activity in several tumors” value [2] is listed as “potent activity”. For the same compound, the “mode of DNA binding, same way as AMD” value (DNA [3]) was “by intercalation of the chromophore and concomitant hydrogen and hydrophobic interactions of the peptide lactones”, the “% ILS (percent increase in life span)” value (P-388 leukemia; 0.031 mg/kg ip) was 18% and the “MST (median survival time)” value (P-388 leukemia; 0.031 mg/kg ip) was 13 days. The “cure (over 55 day survivors)” value (P-388 leukemia; 0.031 mg/kg ip) was 0/7, the “% ILS (percent increase in life span)” value (P-388 leukemia; 0.062 mg/kg ip) was 45% and the “MST (median survival time)” value (P-388 leukemia; 0.062 mg/kg ip) was 16 days. For the same compound, the “cure (over 55 day survivors)” value (P-388 leukemia; 0.062 mg/kg ip) was 1/7, the “% ILS (percent increase in life span)” value (P-388 leukemia; 0.125 mg/kg ip) was 136% and the “MST (median survival time)” value (P-388 leukemia; 0.125 mg/kg ip) was 26 days. For the same compound, the “cure (over 55 day survivors)” value (P-388 leukemia; 0.125 mg/kg ip) was 0/7, the “% ILS (percent increase in life span)” value (P-388 leukemia; 0.250 mg/kg ip) was 55% and the “MST (median survival time)” value (P-388 leukemia; 0.250 mg/kg ip) was 17 days. For the same compound, the “cure (over 55 day survivors)” value (P-388 leukemia; 0.250 mg/kg ip) was 0/7, the “MST (median survival time)” value (P-388 leukemia; 0.375 mg/kg ip) was 9 days and the minimal effective dose (P-388 leukemia; four injections ip, qd 1-4) was 0.05 mg/kg. The minimal effective dose (P-388 leukemia; [8]) was 0.0625 mg/kg, the “therapeutic index: MTD/MED” value (P-388 leukemia; four injections ip, qd 1-4) was 3 and the “activity in respect of % ILS, 1b versus 2b” value (P-388 leukemia; ip, q4d 1, 5, 9) was “approximately equiactive”. The “breadth of dose-response curve” value (P-388 leukemia; ip, q4d 1, 5, 9) was “very narrow”, the “therapeutic index: MTD/MED” value (P-388 leukemia; [8]) was 4 and the toxicity (patients) was “acute and cumulative toxicity”. For the same compound, the in vivo metabolism [4] was “not metabolized in vivo”, the “pathology of spleen sections” value [5] was “haematopoiesis indicative of bone-marrow toxicity” and the “inhibition of DNA-dependent RNA synthesis” value [6] was “strongly inhibits”. The “cytotoxicity in proliferating cells versus nonproliferating (liver, kidney, muscle)” value (proliferating cells) was “far more cytotoxic in those proliferating cells”, the “MTD (maximum tolerated dose, lethal for 10% of normal mice; = LD10)” value (normal CDF1 male mice; four injections ip, qd 1-4) was 0.15 milligrams/kilogram and the “MTD (maximum tolerated dose, lethal for 10% of normal mice; = LD10)” value (normal CDF1 male mice; [8]) was 0.25 milligrams/kilogram. For the same compound, the IC50 [7] was 0.06 µg/mL (≈ 0.0478 µM).
